The text below walks through data of US11555041B2, “Bridged bicyclic inhibitors of menin-MLL and methods of use” (Kura Oncology, Inc., priority 2016, dated 2023).

Like-named read-outs stand apart in the source and are kept apart here. Some results are limits rather than exact numbers.

As a reminder, the IC50 is the concentration that gives 50% inhibition. The GI50 is the concentration giving 50% growth inhibition. Low values mean more potent growth inhibition, high ones less potent growth inhibition.

The subject of experiment [1] is MV4;11 (human leukemia) tumor. Description: Efficacy study in mouse xenograft tumor model. Conditions: female nude mice, subcutaneous MV4;11, oral gavage 150 mg/kg bid. Type of experiment: in vivo. The procedure: Immunocompromised 8-10 week-old female nude (nu/nu) mice were used for in vivo efficacy studies in accordance with IACUC guidelines. Human MV4;11 leukemia cells available from ATCC were implanted subcutaneously into female nude mice (5×10^6 cells/mouse). When the tumor reached a size of approximately 150 to 250 mm^3, the tumor-bearing mice were randomly assigned to a vehicle control or a compound treatment group (8 mice per group). Mice in the treatment group were administered a compound of the present disclosure by oral gavage (150 mg/kg, bid). Subcutaneous tumor volume and mouse body weight were measured twice weekly. Tumor volumes were calculated by measuring two perpendicular diameters with calipers (V=(length×width^2)/2). […] As used in the Examples and Figures herein, Compound B refers to Compound 82 in Table 1.

In experiment [2] the target is T1, menin-MLL interaction (Menin MLL 4-43) (Homo sapiens, UniProt O00255).
T1 sequence (O00255 1-610): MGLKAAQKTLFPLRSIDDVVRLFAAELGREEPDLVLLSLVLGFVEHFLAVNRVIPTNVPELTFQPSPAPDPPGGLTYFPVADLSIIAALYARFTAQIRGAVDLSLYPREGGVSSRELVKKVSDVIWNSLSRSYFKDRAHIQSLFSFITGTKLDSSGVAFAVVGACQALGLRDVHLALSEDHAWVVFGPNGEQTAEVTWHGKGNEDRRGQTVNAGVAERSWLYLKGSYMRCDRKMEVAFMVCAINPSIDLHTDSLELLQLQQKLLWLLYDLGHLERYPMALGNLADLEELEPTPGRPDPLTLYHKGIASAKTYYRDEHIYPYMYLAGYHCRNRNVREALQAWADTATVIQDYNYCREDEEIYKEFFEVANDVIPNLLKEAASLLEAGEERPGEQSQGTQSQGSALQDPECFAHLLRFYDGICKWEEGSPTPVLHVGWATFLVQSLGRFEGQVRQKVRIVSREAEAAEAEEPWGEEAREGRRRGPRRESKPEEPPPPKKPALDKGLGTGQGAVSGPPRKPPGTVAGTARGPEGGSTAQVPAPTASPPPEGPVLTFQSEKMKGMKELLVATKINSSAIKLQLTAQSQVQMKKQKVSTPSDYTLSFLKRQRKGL
Description: Fluorescence polarization (FP) competition assay. The experiment is classed as binding. A general note: Fluorescence polarisation rises when a labelled molecule tumbles more slowly, as on binding a larger partner.

The subject of a further experiment is MV4;11 cells. Description: MTT cell proliferation assay. The experiment is classed as cell-based. As to conditions: Homo sapiens. The procedure:
The ability of a compound of the present disclosure to inhibit the growth of cells was tested in MLL leukemia cell lines (e.g., MV4;11) using the MTT cell proliferation assay (ATCC® 30-1010K). […] Cells were plated at about 1×10^5 cells per well in a 96-well plate. A compound of the present disclosure was added at a concentration up to about 2 μM with seven, 2-fold serial dilutions for each compound. Cells were incubated at 37° C. for 72 hours, then cells in the control wells were counted. Media was changed to restore viable cell numbers to the original concentration, and compounds were re-supplied. Proliferation was measured 96 hours later using MTT reagents, as per kit instructions. […] As used in the Examples and Figures herein, Compound A refers to Compound 3 in Table 1.
(In general: Tetrazolium assays rely on reduction of a dye to a coloured formazan, in cell work by metabolically active cells.)

Where [3] appears, read: fluorescence polarization assay, read-out: Menin MLL 4-43 IC50.
The mark [4] stands for this setting: measured in accordance with Example 8, read-out: IC50 value (ability of the compound to disrupt the menin-MLL interaction).

On to `CNc1nc(NC2CCN(Cc3ccc4c(cc(C#N)n4CC45CC(NC(C)=O)(C4)C5)c3C)CC2)c2cc(CC(F)(F)F)sc2n1` [Compound 82], for which the “MV4;11 tumor growth (tumor volume) relative to vehicle control” value in experiment [1] is “inhibited tumor growth and induced tumor regression”. Moreover, the values for the IC50 in experiment [2] (setting [3]) and in experiment [2] (setting [4]) were less than 50 nM and not above 50 nM, respectively.

In the case of `CC[C@@H](NC)C(=O)NC12CC(Cn3c(C#N)cc4c(C)c(CN5CCC(Nc6ncnc7sc(CC(F)(F)F)cc67)CC5)ccc43)(C1)C2` [Compound 70], the IC50 in experiment [2] (setting [3]) is less than 50 nM.

In the case of `CNC12CC(Cn3c(C#N)cc4c(C)c(CN5CCC(Nc6ncnc7sc(CC(F)(F)F)cc67)CC5)ccc43)(C1)C2` [Compound 10], the IC50 in experiment [2] (setting [3]) is 50 to 250 nM.

Consider `CC(=O)NC12CC(Cn3c(C#N)cc4c(C)c(CN5CCC(Nc6ncnc7sc(CC(F)(F)F)cc67)CC5)ccc43)(C1)C2` [Compound 2], for which the IC50 in experiment [2] (setting [3]) was 50 to 250 nM.

`CNc1nc(NC2CCN(Cc3ccc4c(cc(C#N)n4CC45CC(NC(=O)Cc6cccc(N)c6)(C4)C5)c3C)CC2)c2cc(CC(F)(F)F)sc2n1` [Compound 79]: the IC50 in experiment [2] (setting [3]) was less than 50 nM.

With `Cc1c(CN2CCC(Nc3ncnc4sc(CC(F)(F)F)cc34)CC2)ccc2c1cc(C#N)n2CC12CC(N(C3CC3)C3CC3)(C1)C2` [Compound 49], in experiment [2] (setting [3]), the IC50 is more than 1000 nM.

Take `Cc1c(CN2CCC(Nc3ncnc4sc(CC(F)(F)F)cc34)CC2)ccc2c1cc(C#N)n2CC12CC(NC(=O)CO)(C1)C2` [Compound 16]: in experiment [2] (setting [3]), the IC50 was 50 to 250 nM.

Turning to `Cc1c(CN2CCC(Nc3ncnc4sc(CC(F)(F)F)cc34)CC2)ccc2c1cc(C#N)n2CC12CC(NC(=O)C(C)O)(C1)C2` (stereo not shown) [Compound 66], the IC50 in experiment [2] (setting [3]) lay within 50 to 250 nM.

`CCC(=O)NC12CC(CCn3c(C#N)cc4c(C)c(CN5CCC(Nc6ncnc7sc(CC(F)(F)F)cc67)CC5)ccc43)(C1)C2` [Compound 12]: the IC50 in experiment [2] (setting [3]) is more than 1000 nM.

Take `Cc1c(CN2CCC(Nc3ncnc4sc(CC(F)(F)F)cc34)CC2)ccc2c1cc(C#N)n2CC12CC(NC(=O)C(C)(C)N)(C1)C2` [Compound 59]: in experiment [2] (setting [3]), the IC50 is less than 50 nM.

With `Cc1nc(NC2CCN(Cc3ccc4c(cc(C#N)n4CC45CC(NC=O)(C4)C5)c3C)CC2)c2cc(CC(F)(F)F)sc2n1` [Compound 83], the IC50 in experiment [2] (setting [3]) was less than 50 nM.

On to `Cc1c(CN2CCC(Nc3ncnc4sc(CC(F)(F)F)cc34)CC2)ccc2c1cc(C#N)n2CC12CC(NC(=O)CCN)(C1)C2` [Compound 39], for which the IC50 in experiment [2] (setting [3]) was less than 50 nM.

Turning to `C=CC(=O)NC12CC(Cn3c(C#N)cc4c(C)c(CN5CCC(Nc6ncnc7sc(CC(F)(F)F)cc67)CC5)ccc43)(C1)C2` [Compound 1], the IC50 in experiment [2] (setting [3]) was 50 to 250 nM.

Turning to `CCC(=O)NC12CC(Cn3c(C#N)cc4c(C)c(CN5CCC(Nc6nc(C)nc7sc(CC(F)(F)F)cc67)CC5)ccc43)(C1)C2` [Compound 55], the IC50 in experiment [2] (setting [3]) lay within 50 to 250 nM.

For `Cc1c(CN2CCC(Nc3ncnc4sc(CC(F)(F)F)cc34)CC2)ccc2c1cc(C#N)n2CC12CC(NC(=O)CNC=O)(C1)C2` [Compound 33], the IC50 in experiment [2] (setting [3]) was in the range of 250 to 1000 nM.

For the molecule `C=CC(=O)N[C@H]1C[C@@H](Cn2c(C#N)cc3c(C)c(CN4CCC(Nc5ncnc6sc(CC(F)(F)F)cc56)CC4)ccc32)C1` [Compound 29], in experiment [2] (setting [3]), the IC50 lay within 50 to 250 nM.

In the case of `CCC(=O)NC12CC(Cn3c(C#N)cc4c(C)c(CN5CCC(Nc6ncnc7sc(CC(F)(F)F)cc67)CC5)ccc43)(C1)C2` [Compound 3], the “MV4;11 tumor growth (tumor volume) relative to vehicle control” value in experiment [1] is “inhibited tumor growth and induced tumor regression”. Besides, the figures for the IC50 in experiment [2] (setting [3]) and in experiment [2] (setting [4]) were 50 to 250 nM and not above 50 nM, respectively. This molecule also gave a GI50 in the experiment on MV4;11 cells of 40 nM.
